For the assay, the target named is thrombin (Homo sapiens, UniProt P00734). To be noted: fibrinogen 3 mg/ml, thrombin 20 nM, 37° C., no pre-incubation, dose-dependent.

Description: 200 μl of fibrinogen (final concentration 3 mg/ml) were incubated with 100 μl of peptides (various concentrations) at 37° C. Clotting of fibrinogen was initiated by the addition of 100 μl of thrombin (final concentration 20 nM). All reagents and samples were dissolved in 50 mM Tris buffer (pH 7.4) containing 100 mM NaCl.

APPFDFEAIPEEYLDDES [AP18]: the fibrinogen clotting time result is reported as “prolonged”.

These data come from patent US20130183237A1 (priority 2007, published 2013).
